Experimental findings from patent US7378375B1, “Substituted pyridine herbicides” (Syngenta Crop Protection, Inc., priority 2000, dated 2008) are described below.

For assay [1], the system named is Monocotyledonous and dicotyledonous test plants. The assay can be described thus: Herbicidal action before emergence of the plants (pre-emergence action), greenhouse pot test, 9-level rating after 4 weeks. The following applies: 250 g/ha, rated after 4 weeks, 9-level scale. It counts as in vivo. Details: key: 9-level scale: 1 = complete damage, 9 = no effect. Here is the method: Herbicidal Action Before Emergence of the Plants (Pre-Emergence Action)
Monocotyledonous and dicotyledonous test plants are sown in standard soil in pots. Immediately after sowing, the test substances are sprayed on at an optimum dosage (500 l of water/ha) as an aqueous suspension (prepared from a wettable powder (example F3, b) according to WO 97/34485) or emulsion (prepared from an emulsion concentrate (example F1, c) according to WO 97/34485). The test plants are then grown under optimum conditions in a greenhouse.
After a test period of 4 weeks, the test is evaluated using a 9-level scale of ratings (1=complete damage, 9=no effect). Ratings of 1 to 4 (in particular 1 to 3) mean good to very good herbicidal action.

Assay [2] has the same test system. The assay can be described thus: Post-emergence herbicidal action, greenhouse pot test, sprayed at the 2- to 3-leaf stage, 9-level rating after 2 to 3 weeks. The following applies: 250 g/ha, rated after 2 to 3 weeks, 9-level scale. Set-up: key: 9-level scale: 1 = complete damage, 9 = no effect. Type of assay: in vivo. Here is the method: Post-Emergence Herbicidal Action
Monocotyledonous and dicotyledonous test plants are grown in standard soil in pots. At the 2- to 3-leaf stage of the test plants, the test substances are sprayed at optimum dosage (500 l of water/ha) as an aqueous suspension (prepared from a wettable powder (example F3, b) according to WO 97/34485) or emulsion (prepared from an emulsion concentrate (example F1, c) according to WO 97/34485). The test plants are then grown further under optimum conditions in a greenhouse.
After a test period of 2 to 3 weeks, the test is evaluated using a 9-level scale of rating (1=complete damage, 9=no effect). Ratings of 1 to 4 (in particular 1 to 3) mean good to very good herbicidal action.

Molecules are shown by their SMILES.

For `O=C(OCc1nc(C(F)(F)F)ccc1C(=O)C1=C(O)C2CCC(C2)C1=O)c1ccccc1` (centres unmarked) [A844-B52], in assay [1], the “Pre-emergence action rating, Abutilon” value came out at 1; the “Pre-emergence action rating, Amaranthus” value amounted to 1; the “Pre-emergence action rating, Chenop.” value is 1; the “Pre-emergence action rating, Digitaria” value is 2. In addition, in assay [1], the “Pre-emergence action rating, Echino.” value stood at 2 and the “Pre-emergence action rating, Panicum” value was 1. In assay [2], the “Post-emergence action rating, Abutilon” value was 3; the “Post-emergence action rating, Amaranth” value came to 3; the “Post-emergence action rating, Chenop.” value worked out at 1; the “Post-emergence action rating, Digitaria” value was 3. Further, in assay [2], the “Post-emergence action rating, Echino.” value came to 4; the “Post-emergence action rating, Ipopur.” value is 3; the “Post-emergence action rating, Panicum” value is reported as 2; the “Post-emergence action rating, Xanth.” value is given as 3.
Take `COCCOCc1nc(C(F)(F)F)ccc1C(=O)C1=C(O)C(C)(C)CC(C)C1=O` (centres unmarked) [A10-B4]: in assay [1], the “Pre-emergence action rating, Abutilon” value stood at 3; the “Pre-emergence action rating, Amaranthus” value came to 1; the “Pre-emergence action rating, Chenop.” value was 1; the “Pre-emergence action rating, Digitaria” value is 3. Moreover, in assay [1], the “Pre-emergence action rating, Echino.” value is on record as 1 and the “Pre-emergence action rating, Panicum” value was 2. Besides, in assay [2], the “Post-emergence action rating, Abutilon” value stood at 1; the “Post-emergence action rating, Amaranth” value was determined as 2; the “Post-emergence action rating, Chenop.” value was 1; the “Post-emergence action rating, Digitaria” value was found to be 1. Besides, in assay [2], the “Post-emergence action rating, Echino.” value stood at 2; the “Post-emergence action rating, Ipopur.” value is recorded as 1; the “Post-emergence action rating, Panicum” value was determined as 1; the “Post-emergence action rating, Xanth.” value came out at 2.
In the case of `CC#CCOCc1nc(C(F)(F)F)ccc1C(=O)C1=C(O)C2CCC(C2)C1=O` (centres unmarked) [A20-B52], in assay [1], the “Pre-emergence action rating, Abutilon” value is 3; the “Pre-emergence action rating, Amaranthus” value is 3; the “Pre-emergence action rating, Digitaria” value worked out at 1; the “Pre-emergence action rating, Echino.” value is 1. In addition, the “Pre-emergence action rating, Panicum” value in assay [1] is 1. Further, in assay [2], the “Post-emergence action rating, Abutilon” value was 2; the “Post-emergence action rating, Amaranth” value was found to be 2; the “Post-emergence action rating, Chenop.” value is listed as 1; the “Post-emergence action rating, Digitaria” value was determined as 2. Further, in assay [2], the “Post-emergence action rating, Echino.” value is listed as 2; the “Post-emergence action rating, Ipopur.” value came to 2; the “Post-emergence action rating, Panicum” value was determined as 1; the “Post-emergence action rating, Xanth.” value was 2.
As for `COCCOCc1nc(C(F)(F)F)ccc1C(=O)C1=C(O)C(C)(C)C(=O)C(C)(C)C1=O` [A10-B39], in assay [1], the “Pre-emergence action rating, Abutilon” value came out at 1; the “Pre-emergence action rating, Amaranthus” value worked out at 1; the “Pre-emergence action rating, Chenop.” value was found to be 1; the “Pre-emergence action rating, Digitaria” value is recorded as 1. Also, in assay [1], the “Pre-emergence action rating, Echino.” value was determined as 1 and the “Pre-emergence action rating, Panicum” value stood at 1. In addition, in assay [2], the “Post-emergence action rating, Abutilon” value was 1; the “Post-emergence action rating, Amaranth” value came out at 1; the “Post-emergence action rating, Chenop.” value amounted to 1; the “Post-emergence action rating, Digitaria” value turned out to be 3. For the same compound, in assay [2], the “Post-emergence action rating, Echino.” value was determined as 3; the “Post-emergence action rating, Ipopur.” value was determined as 2; the “Post-emergence action rating, Panicum” value is 1; the “Post-emergence action rating, Xanth.” value worked out at 2.
As to `COCCOCc1nc(C(F)(F)F)ccc1C(=O)c1c(C)nn(C)c1O` [A10-C2 (H6), (5-Hydroxy-1,3-dimethyl-1H-pyrazol-4-yl)-[2-(2-methoxyethoxymethyl)-6-trifluoromethylpyridin-3-yl]methanone], in assay [1], the “Pre-emergence action rating, Abutilon” value was found to be 1; the “Pre-emergence action rating, Amaranthus” value amounted to 2; the “Pre-emergence action rating, Chenop.” value is reported as 1; the “Pre-emergence action rating, Digitaria” value is recorded as 3. Further, in assay [1], the “Pre-emergence action rating, Echino.” value is given as 3 and the “Pre-emergence action rating, Panicum” value turned out to be 3. In addition, in assay [2], the “Post-emergence action rating, Abutilon” value worked out at 2; the “Post-emergence action rating, Amaranth” value worked out at 1; the “Post-emergence action rating, Chenop.” value is 1; the “Post-emergence action rating, Digitaria” value was found to be 4. Further, in assay [2], the “Post-emergence action rating, Echino.” value came out at 3; the “Post-emergence action rating, Ipopur.” value is reported as 3; the “Post-emergence action rating, Panicum” value is 2; the “Post-emergence action rating, Xanth.” value is recorded as 1.
Take `COCOCc1nc(C(F)(F)F)ccc1C(=O)C1=C(O)C2CCC(C2)C1=O` (centres unmarked) [A8-B52]: in assay [1], the “Pre-emergence action rating, Abutilon” value worked out at 1; the “Pre-emergence action rating, Amaranthus” value is 1; the “Pre-emergence action rating, Digitaria” value is given as 1; the “Pre-emergence action rating, Echino.” value was 1. The “Pre-emergence action rating, Panicum” value in assay [1] stood at 1. Also, in assay [2], the “Post-emergence action rating, Abutilon” value is 1; the “Post-emergence action rating, Amaranth” value turned out to be 1; the “Post-emergence action rating, Chenop.” value is 1; the “Post-emergence action rating, Digitaria” value worked out at 1. In addition, in assay [2], the “Post-emergence action rating, Echino.” value was determined as 1; the “Post-emergence action rating, Ipopur.” value is on record as 1; the “Post-emergence action rating, Panicum” value is given as 1; the “Post-emergence action rating, Xanth.” value is given as 2.
Turning to `COCC(Br)COCc1nc(C(F)(F)F)ccc1C(=O)C1=C(O)C2CCC(C2)C1=O` (centres unmarked) [A853-B52], in assay [1], the “Pre-emergence action rating, Abutilon” value stood at 1; the “Pre-emergence action rating, Amaranthus” value worked out at 1; the “Pre-emergence action rating, Chenop.” value is given as 2; the “Pre-emergence action rating, Digitaria” value came to 1. Besides, in assay [1], the “Pre-emergence action rating, Echino.” value came to 2 and the “Pre-emergence action rating, Panicum” value is 1.
As to `O=C(C1=C(O)C2CCC(C2)C1=O)c1ccc(C(F)(F)F)nc1COCC1CCCCO1` (centres unmarked) [A63-B52], in assay [1], the “Pre-emergence action rating, Abutilon” value was 5; the “Pre-emergence action rating, Amaranthus” value came out at 3; the “Pre-emergence action rating, Digitaria” value is 3; the “Pre-emergence action rating, Echino.” value amounted to 1. Also, the “Pre-emergence action rating, Panicum” value in assay [1] was found to be 2. In addition, in assay [2], the “Post-emergence action rating, Abutilon” value is listed as 2; the “Post-emergence action rating, Amaranth” value was found to be 2; the “Post-emergence action rating, Chenop.” value is 2; the “Post-emergence action rating, Digitaria” value is on record as 2. Moreover, in assay [2], the “Post-emergence action rating, Echino.” value came out at 2; the “Post-emergence action rating, Ipopur.” value came out at 2; the “Post-emergence action rating, Panicum” value worked out at 1; the “Post-emergence action rating, Xanth.” value was found to be 2.
Take `COCCOCc1nc(C(F)(F)F)ccc1C(=O)c1cnn(C)c1OS(=O)(=O)c1ccc(C)cc1` [A10-C29]: in assay [1], the “Pre-emergence action rating, Abutilon” value is 1; the “Pre-emergence action rating, Amaranthus” value amounted to 1; the “Pre-emergence action rating, Digitaria” value was 2; the “Pre-emergence action rating, Echino.” value was 1. Besides, the “Pre-emergence action rating, Panicum” value in assay [1] is on record as 2. Also, in assay [2], the “Post-emergence action rating, Abutilon” value turned out to be 2; the “Post-emergence action rating, Amaranth” value came to 2; the “Post-emergence action rating, Chenop.” value is 1; the “Post-emergence action rating, Digitaria” value is reported as 3. In assay [2], the “Post-emergence action rating, Echino.” value is recorded as 3; the “Post-emergence action rating, Ipopur.” value came out at 1; the “Post-emergence action rating, Panicum” value worked out at 2; the “Post-emergence action rating, Xanth.” value is recorded as 2.
On to `Cn1ncc(C(=O)c2ccc(C(F)(F)F)nc2COCC(F)(F)F)c1O` [A834-C5], for which, in assay [1], the “Pre-emergence action rating, Abutilon” value is given as 1; the “Pre-emergence action rating, Amaranthus” value is listed as 2; the “Pre-emergence action rating, Digitaria” value was determined as 3; the “Pre-emergence action rating, Echino.” value came out at 1. The “Pre-emergence action rating, Panicum” value in assay [1] came to 1.
